US10246469B2, “Biaryl kinase inhibitors” (BRISTOL-MYERS SQUIBB COMPANY, priority 2015, dated 2019)

Target: T1, GST-Xa-hAAK1 (Homo sapiens, UniProt Q2M2I8)
T1 construct: GST (N); Factor Xa cleavage site (Xa) (internal); made in house
Experiment: AAK1 Kinase Assay
Assay type: biochemical
Details: bacterially expressed GST-Xa-hAAK1 3.5 nM; ATP 22 μM; fluoresceinated peptide 1.5 μM; 3 hours at room temperature; Caliper LabChip 3000
Procedure: The assays were performed in U-bottom 384-well plates. The final assay volume was 30 μl prepared from 15 μl additions of enzyme and substrates (fluoresceinated peptide (5-FAM)-Aha-[…]-NH2 and ATP) and test compounds in assay buffer (10 mM Tris-HCL pH 7.4, 10 mM MgCl2, 0.01% Tween-20 and 1.0 mM DTT). The reactions were initiated by the combination of bacterially expressed, GST-Xa-hAAK1 with substrates and test compounds. The reactions were incubated at room temperature for 3 hours and terminated by adding 60 μl of 35 mM EDTA buffer to each sample. The reactions were analyzed on the Caliper LabChip 3000 (Caliper, Hopkinton, Mass.) by electrophoretic separation of the fluorescent substrate and phosphorylated product. […] The final concentration of reagents in the assays are ATP, 22 μM; (5-FAM)-Aha-[…]-NH2, 1.5 μM; GST-Xa-hAAK1, 3.5 nM; and DMSO, 1.6%. […] Compounds were dissolved at 10 mM in dimethylsulfoxide (DMSO) and evaluated at eleven concentrations. IC50 values were derived by non-linear regression analysis.

T1 sequence (Q2M2I8 whole entry): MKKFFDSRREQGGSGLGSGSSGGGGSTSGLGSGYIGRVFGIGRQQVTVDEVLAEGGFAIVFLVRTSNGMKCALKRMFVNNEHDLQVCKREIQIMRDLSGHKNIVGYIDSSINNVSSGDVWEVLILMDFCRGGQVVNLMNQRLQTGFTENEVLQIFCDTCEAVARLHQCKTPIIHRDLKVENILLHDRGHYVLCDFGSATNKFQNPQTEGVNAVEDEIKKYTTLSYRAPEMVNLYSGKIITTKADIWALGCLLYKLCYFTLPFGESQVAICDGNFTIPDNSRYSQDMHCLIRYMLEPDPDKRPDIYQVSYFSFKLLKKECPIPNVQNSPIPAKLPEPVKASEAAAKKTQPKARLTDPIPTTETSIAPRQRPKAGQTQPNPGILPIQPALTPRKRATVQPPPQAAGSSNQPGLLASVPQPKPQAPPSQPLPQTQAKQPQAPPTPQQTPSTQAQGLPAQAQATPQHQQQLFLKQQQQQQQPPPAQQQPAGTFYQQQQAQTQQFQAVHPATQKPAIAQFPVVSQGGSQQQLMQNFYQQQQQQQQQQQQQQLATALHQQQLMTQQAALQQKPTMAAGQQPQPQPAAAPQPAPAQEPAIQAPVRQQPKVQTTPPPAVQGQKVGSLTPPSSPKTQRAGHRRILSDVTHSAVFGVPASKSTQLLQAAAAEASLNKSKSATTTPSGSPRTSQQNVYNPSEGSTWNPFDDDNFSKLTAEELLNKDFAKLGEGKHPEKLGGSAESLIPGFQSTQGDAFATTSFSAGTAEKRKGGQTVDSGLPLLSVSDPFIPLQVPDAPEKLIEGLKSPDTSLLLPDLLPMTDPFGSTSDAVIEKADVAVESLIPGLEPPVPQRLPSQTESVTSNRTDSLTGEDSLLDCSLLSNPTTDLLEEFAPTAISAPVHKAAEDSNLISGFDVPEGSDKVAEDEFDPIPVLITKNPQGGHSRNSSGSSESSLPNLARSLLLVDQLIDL

IC50	Compound
1.4 nM	CC(C)C[C@](C)(N)COc1ccc(-c2ccnc3cc(C4CC4)nn23)cc1Cl [Example 482, (S)-1-(2-chloro-4-(2-cyclopropylpyrazolo[1,5-a]pyrimidin-7-yl)phenoxy)-2,4-dimethylpentan-2-amine]
11 nM	Cc1cn2nccc(-c3ccc(OC[C@@](C)(N)CC(C)C)c(C)n3)c2n1 [Example 452, (S)-2,4-dimethyl-1-((2-methyl-6-(2-methylimidazo[1,2-b]pyridazin-8-yl)pyridin-3-yl)oxy)pentan-2-amine]
212 nM	CC(C)C[C@](C)(N)COc1ccc(-c2ccnc3ccnn23)c2scnc12 [Example 341, (S)-2,4-dimethyl-1-((7-(pyrazolo[1,5-a]pyrimidin-7-yl)benzo[d]thiazol-4-yl)oxy)pentan-2-amine]
7.4 nM	CC(C)C[C@](C)(N)COc1ccc(-c2ccnc(NC3CCCC3)n2)cc1C(F)(F)F [Example 377, (S)-4-(4-((2-amino-2,4-dimethylpentyl)oxy)-3-(trifluoromethyl)phenyl)-N-cyclopentylpyrimidin-2-amine]
6.1 nM	CC(C)C[C@](C)(N)COc1ccc(-c2cc(=O)[nH]cn2)cc1Cl [Example 509, (S)-6-(4-((2-amino-2,4-dimethylpentyl)oxy)-3-chlorophenyl)pyrimidin-4(3H)-one]
138 nM	CC(C)C[C@](C)(N)COc1ccc(-c2ccnc(NC3CCNCC3)c2)cc1C(F)(F)F [Example 470, (S)-4-(4-(2-amino-2,4-dimethylpentyloxy)-3-(trifluoromethyl)phenyl)-N-(piperidin-4-yl)pyridin-2-amine]
765 nM	CC(C)C[C@](C)(N)COc1ccc(-c2ccnc3c2C(=O)N(C)C3)cc1F [Example 413, (S)-4-(4-((2-amino-2,4-dimethylpentyl)oxy)-3-fluorophenyl)-6-methyl-6,7-dihydro-5H-pyrrolo [3,4-b]pyridin-5-one]
0.47 nM	CC(C)C[C@](C)(N)COc1ccc(-c2ccnc(NC(=O)c3nccs3)c2)cc1C(F)(F)F [Example 258, (S)—N-(4-(4-((2-amino-2,4-dimethylpentyl)oxy)-3-(trifluoromethyl)phenyl)pyridin-2-yl)thiazole-2-carboxamide]
1 nM	CC(C)C[C@](C)(N)COc1ccc(-c2ccnc(NC(=O)C3CCCO3)c2)cc1C(F)(F)F (stereo partly drawn) [Example 398, N-(4-(4-(((S)-2-amino-2,4-dimethylpentyl)oxy)-3-(trifluoromethyl)phenyl)pyridin-2-yl)tetrahydrofuran-2-carboxamide]
52 nM	Cc1nc(-c2ccc(OC[C@@](C)(N)CC(C)C)c(C(F)(F)F)c2)c2ccsc2n1 [Example 481, (S)-2,4-dimethyl-1-(4-(2-methylthieno[2,3-d]pyrimidin-4-yl)-2-(trifluoromethyl)phenoxy)pentan-2-amine]
64 nM	CC(C)C[C@](C)(N)COc1ccc(-c2ccnc(NC3CCNCC3)c2)cc1C#N [Example 466, (S)-2-(2-amino-2,4-dimethylpentyloxy)-5-(2-(piperidin-4-ylamino)pyridin-4-yl) benzonitrile]
862 nM	CC(C)C[C@](C)(N)COc1ccc(-c2ccnc3ccn(C)c23)cc1C#N [Example 423, (S)-2-((2-amino-2,4-dimethylpentyl)oxy)-5-(1-methyl-1H-pyrrolo[3,2-b]pyridin-7-yl)benzonitrile]
58 nM	CC(C)C[C@](C)(N)COc1ccc(-c2ccnc3c2cnn3C)cc1F [Example 289, (5)-1-(2-fluoro-4-(1-methyl-1H-pyrazolo[3,4-b]pyridin-4-yl)phenoxy)-2,4-dimethylpentan-2-amine]
94 nM	CC(C)C[C@](C)(N)COc1ccc(-c2ccnc3c2C(=O)NC3)cc1F [Example 416, (S)-4-(4-((2-amino-2,4-dimethylpentyl)oxy)-3-fluorophenyl)-6,7-dihydro-5H-pyrrolo[3,4-b]pyridin-5-one]
1.7 nM	CC(C)C[C@](C)(N)COc1ccc(-c2ncnc3[nH]ccc23)cc1Cl [Example 361, (S)-1-(2-chloro-4-(7H-pyrrolo[2,3-d]pyrimidin-4-yl)phenoxy)-2,4-dimethylpentan-2-amine]
15 nM	CC(C)C[C@](C)(N)COc1ccc(-c2ccnn3cc(C4CC4)nc23)cc1F [Example 493, (S)-1-(4-(2-cyclopropylimidazo[1,2-b]pyridazin-8-yl)-2-fluorophenoxy)-2,4-dimethylpentan-2-amine]
99 nM	Cc1cc(-c2cnn3cccnc23)ccc1OC[C@@](C)(N)CC(C)C [Example 333]

IC50	Compound
0.9 nM	CC(C)C[C@](C)(N)COc1ccc(-c2ccnc3[nH]ncc23)cc1F [Example 288, (S)-1-(2-fluoro-4-(1H-pyrazolo[3,4-b]pyridin-4-yl)phenoxy)-2,4-dimethylpentan-2-amine]
4.1 nM	Cc1nc2c(-c3ccc(OC[C@@](C)(N)CC(C)C)c(C#N)c3)ncnc2s1 [Example 271, (S)-2-((2-amino-2,4-dimethylpentyl)oxy)-5-(2-methylthiazolo[5,4-d]pyrimidin-7-yl)benzonitrile]
1 nM	CC(C)C[C@](C)(N)COc1ccc(-c2ccnc3ccnn23)cc1Cl [Example 456, (S)-1-(2-chloro-4-(pyrazolo [1,5-a]pyrimidin-7-yl)phenoxy)-2,4-dimethylpentan-2-amine]
160 nM	CC(C)C[C@](C)(N)COc1ccc(-c2cc(N)nc3ccnn23)cc1F [Example 457, (S)-7-(4-((2-amino-2,4-dimethylpentyl)oxy)-3-fluorophenyl)pyrazolo[1,5-a]pyrimidin-5-amine]
0.3 nM	CC(C)C[C@](C)(N)COc1ccc(-c2ccnc(NC(=O)C3CC3)c2)cc1C(F)(F)F [Example 389, (S)—N-(4-(4-((2-amino-2,4-dimethylpentyl)oxy)-3-(trifluoromethyl)phenyl)pyridin-2-yl)cyclopropanecarboxamide]
34 nM	Cc1nc2c(-c3ccc(OC[C@@](C)(N)CC(C)C)c(C(F)(F)F)c3)ccnc2[nH]1 [Example 291, (S)-2,4-dimethyl-1-(4-(2-methyl-3H-imidazo[4,5-b]pyridin-7-yl)-2-(trifluoromethyl)phenoxy)pentan-2-amine]
0.5 nM	CC(C)C[C@](C)(N)COc1ccc(-c2ccnc(NC(=O)C3CCC3)c2)cc1C(F)(F)F [Example 390, (S)—N-(4-(4-((2-amino-2,4-dimethylpentyl)oxy)-3-(trifluoromethyl)phenyl)pyridin-2-yl)cyclobutanecarboxamide]
0.4 nM	CC(C)C[C@](C)(N)COc1ccc(-c2ccnc3ccnn23)nc1C(F)F [Example 322, (S)-1-((2-(difluoromethyl)-6-(pyrazolo[1,5-a]pyrimidin-7-yl)pyridin-3-yl)oxy)-2,4-dimethylpentan-2-amine]
1740 nM	Cc1cc(-c2ccnc3ccn(C)c23)ccc1OC[C@@](C)(N)CC(C)C [Example 427, (S)-2,4-dimethyl-1-(2-methyl-4-(1-methyl-1H-pyrrolo[3,2-b]pyridin-7-yl)phenoxy)pentan-2-amine]
399 nM	CC(C)C[C@](C)(N)COc1ccc(-c2cc(NC3CCOC3)ncn2)cc1C(F)(F)F (stereo partly drawn) [Example 448, 6-(4-(((S)-2-amino-2,4-dimethylpentyl)oxy)-3-(trifluoromethyl)phenyl)-N-(tetrahydrofuran-3-yl)pyrimidin-4-amine]
1140 nM	CCN1Cc2nccc(-c3ccc(OC[C@@](C)(N)CC(C)C)c(F)c3)c2C1=O [Example 419, (S)-4-(4-((2-amino-2,4-dimethylpentyl)oxy)-3-fluorophenyl)-6-ethyl-6,7-dihydro-5H-pyrrolo [3,4-b]pyridin-5-one]
1.8 nM	Cc1cn2nccc(-c3ccc(OC[C@@](C)(N)CC(C)C)c(C#N)c3)c2n1 [Example 492, (S)-2-((2-amino-2,4-dimethylpentyl)oxy)-5-(2-methylimidazo[1,2-b]pyridazin-8-yl)benzonitrile]
0.8 nM	CC(C)C[C@](C)(N)COc1ccc(-c2ccnc(NC(=O)C3=NNC(=O)CC3)c2)cc1C(F)(F)F [Example 407, (S)—N-(4-(4-((2-amino-2,4-dimethylpentyl)oxy)-3-(trifluoromethyl)phenyl)pyridin-2-yl)-6-oxo-1,4,5,6-tetrahydropyridazine-3-carboxamide]
265 nM	Cc1cc(-c2ccnc3cc(C4CC4)nn23)cnc1OC[C@](C)(N)CC(C)C [Example 266, (R)-1-((5-(2-cyclopropylpyrazolo[1,5-a]pyrimidin-7-yl)-3-methylpyridin-2-yl)oxy)-2,4-dimethylpentan-2-amine]
0.5 nM	CC(C)C[C@](C)(N)COc1ccc(-c2ccnn3ccnc23)cc1C#N [Example 287, (S)-2-((2-amino-2,4-dimethylpentyl)oxy)-5-(imidazo[1,2-b]pyridazin-8-yl)benzonitrile]
42 nM	CC(C)C[C@](C)(N)COc1ccc(-c2ccnc3[nH]c(N)nc23)cc1C(F)(F)F [Example 255, (S)-7-(4-((2-amino-2,4-dimethylpentyl)oxy)-3-(trifluoromethyl)phenyl)-3H-imidazo [4,5-b]pyridin-2-amine]
964 nM	Cc1nccc(-c2cnc(OCC3(N)CCC3)c(C)c2)n1 [Example 347, 1-(((3-methyl-5-(2-methylpyrimidin-4-yl)pyridin-2-yl)oxy)methyl)cyclobutanamine]
